Reference: US11053218B2, “3-(1-oxoisoindolin-2-yl)piperidine-2,6-dione derivatives and uses thereof” (Novartis AG, priority 2017, dated 2021)
Read-outs that look alike come from different tables or passages of the source.

Legend:
[1] = biological target: IKZF1 (Homo sapiens, UniProt Q13422+Q96SW2); experiment: Prolabel quantification of IKZF1 protein levels in 293GT cells; assay type: cell-based; settings: Prolabel assay, read-out: IKZF1 EC50
Procedure: (§1) The Prolabel system from DiscoverX was used to develop high-throughput and quantitative assays to measure changes in IKZF1, IKZF2 and GSPT1 protein levels in response to compounds. The prolabel tag was derived from the alpha fragment of beta galactosidase and has the following protein sequence: mssnslavvlqrrdwenpgvtqlnrlaahppfaswrnseeartdrpsqqlrslnge. The complementary fragment of beta-galactosidase (from DiscoverX), is added to the prolabel tag to form an active beta galactosidase enzyme whose activity can be precisely measured. In this way, the levels of a fusion protein with the prolabel tag can be quantified in cell lysates.
(§2) Lentiviral vectors, based on the Invitrogen pLenti6.2/V5 DEST backbone, were constructed that placed the prolabel tag upstream of IKZF1, IKZF2 or GSPT1 and expressed the fusion protein from a CMV promoter.
(§3) To ensure moderate and consistent expression of the prolabel fusion proteins across all cells in the population, stable cell lines were constructed from cells expressing a single copy of the construct. Lentivirus packaged with the constructs was made using the Virapower kit from Invitrogen.
(§4) The levels of prolabel tagged fusion proteins in compound treated cell lines were measured as follows:
(§5) Day 1, Cells were diluted to 1.0×10^6 cells/ml in normal growth medium. 17.5 μL of cells were plated in each well of a solid white 384 well plate. Plates were incubated overnight in a 37° C. tissue culture incubator.
(§6) Day 2, Serial dilutions of compounds were made in 384 well plates from 10 mM stocks. 15 μL of DMSO was added to each well of a 384 well plate. In the first column 15 μL of stock compound was added. The solution was mixed and 15 μL was transferred to the next column. This was repeated until 20 two-fold dilutions were prepared. 2.5 μL of diluted compounds were transferred into 60 μL of cell culture medium in another 384 well plate, and mixed well. 2.5 μL of this mixture was added to the plated cells. The final DMSO concentration was 0.5% and the highest concentration of compound was 50 μM. Plates were incubated overnight (e.g., about 14 h, 18 h, or 24 h) in a 37° C. tissue culture incubator.
(§7) Day 3, Plates were removed from the incubator and allowed to equilibrate at rt for 30 minutes. Prolabel substrate (DiscoverX PathHunter Prolabel Detection Kit, User manual: 93-0180) was added as described by the manufacturers protocols. Plates were incubated at rt for three hours and luminescence was read using an Envision reader (Perkin Elmer) Data was analyzed and visualized using the Spotfire software package.

[2] = biological target: IKZF2 (Homo sapiens, UniProt Q96SW2+Q9UKS7); experiment: Prolabel quantification of IKZF2 protein levels in 293GT cells; assay type: cell-based
IKZF2, sequence (Q9UKS7 whole entry): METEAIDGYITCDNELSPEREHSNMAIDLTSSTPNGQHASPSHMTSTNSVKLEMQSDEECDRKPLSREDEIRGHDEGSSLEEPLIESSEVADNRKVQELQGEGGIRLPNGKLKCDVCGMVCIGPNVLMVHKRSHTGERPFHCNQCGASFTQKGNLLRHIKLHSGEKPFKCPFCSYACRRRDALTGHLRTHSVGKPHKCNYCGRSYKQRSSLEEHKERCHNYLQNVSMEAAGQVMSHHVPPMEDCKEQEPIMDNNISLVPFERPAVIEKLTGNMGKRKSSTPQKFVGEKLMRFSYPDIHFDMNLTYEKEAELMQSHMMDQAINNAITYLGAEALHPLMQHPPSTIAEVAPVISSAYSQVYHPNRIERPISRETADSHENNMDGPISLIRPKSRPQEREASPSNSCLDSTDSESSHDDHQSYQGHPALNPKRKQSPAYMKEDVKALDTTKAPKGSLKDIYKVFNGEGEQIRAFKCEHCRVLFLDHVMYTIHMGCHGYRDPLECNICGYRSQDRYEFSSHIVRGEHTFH
IKZF2, sequence (Q96SW2 whole entry): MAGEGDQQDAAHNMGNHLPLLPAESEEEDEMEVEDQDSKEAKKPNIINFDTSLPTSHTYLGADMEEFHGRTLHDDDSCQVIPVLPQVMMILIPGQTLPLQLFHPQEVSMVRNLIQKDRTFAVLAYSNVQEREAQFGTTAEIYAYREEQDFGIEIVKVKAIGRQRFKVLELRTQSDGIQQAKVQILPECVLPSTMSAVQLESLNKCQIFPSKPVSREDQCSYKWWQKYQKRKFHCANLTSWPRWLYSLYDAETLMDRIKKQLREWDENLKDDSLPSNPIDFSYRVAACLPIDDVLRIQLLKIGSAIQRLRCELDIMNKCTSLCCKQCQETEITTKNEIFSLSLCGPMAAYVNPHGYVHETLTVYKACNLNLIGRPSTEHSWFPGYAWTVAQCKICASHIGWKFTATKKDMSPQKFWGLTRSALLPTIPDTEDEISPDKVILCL
IKZF2, sequence (Q16531 whole entry partner): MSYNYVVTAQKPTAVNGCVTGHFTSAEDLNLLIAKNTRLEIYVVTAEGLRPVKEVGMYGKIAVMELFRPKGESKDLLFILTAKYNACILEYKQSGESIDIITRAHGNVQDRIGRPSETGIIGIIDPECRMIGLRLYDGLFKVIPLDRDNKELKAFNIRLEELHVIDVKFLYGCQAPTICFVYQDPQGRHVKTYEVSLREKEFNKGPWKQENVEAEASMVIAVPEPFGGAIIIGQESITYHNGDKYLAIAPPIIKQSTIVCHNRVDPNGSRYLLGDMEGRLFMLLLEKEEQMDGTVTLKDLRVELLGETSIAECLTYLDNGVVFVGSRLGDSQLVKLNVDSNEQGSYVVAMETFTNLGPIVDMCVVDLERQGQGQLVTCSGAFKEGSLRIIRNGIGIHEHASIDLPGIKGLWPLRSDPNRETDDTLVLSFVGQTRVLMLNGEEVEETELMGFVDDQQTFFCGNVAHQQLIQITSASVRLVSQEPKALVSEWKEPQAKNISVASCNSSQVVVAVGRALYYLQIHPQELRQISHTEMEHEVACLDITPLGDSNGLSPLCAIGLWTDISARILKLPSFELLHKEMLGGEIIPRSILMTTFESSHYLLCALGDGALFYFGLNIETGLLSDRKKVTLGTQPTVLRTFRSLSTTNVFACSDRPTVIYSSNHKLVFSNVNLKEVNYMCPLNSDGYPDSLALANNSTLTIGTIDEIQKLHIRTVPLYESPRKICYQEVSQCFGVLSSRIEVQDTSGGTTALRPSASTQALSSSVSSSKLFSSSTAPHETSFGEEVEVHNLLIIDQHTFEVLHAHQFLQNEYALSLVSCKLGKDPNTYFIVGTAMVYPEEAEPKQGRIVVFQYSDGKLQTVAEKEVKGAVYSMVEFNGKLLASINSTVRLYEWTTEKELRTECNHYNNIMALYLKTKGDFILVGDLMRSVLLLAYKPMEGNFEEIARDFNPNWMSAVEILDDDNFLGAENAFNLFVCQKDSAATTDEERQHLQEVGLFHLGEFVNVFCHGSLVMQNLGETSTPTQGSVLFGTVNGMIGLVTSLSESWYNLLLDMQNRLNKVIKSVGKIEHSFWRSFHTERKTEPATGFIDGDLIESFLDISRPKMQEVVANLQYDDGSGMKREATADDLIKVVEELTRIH
Procedure: as §1, §2, §3, §4, §5, §6, §7

[3] = 24 h, 10 μM, 24 h, 293GT cells; read-out: IKZF2 % protein reduction at 10 μM, 24 h
[4] = Prolabel assay, 293GT cells; read-out: IKZF2 EC50

IKZF1, sequence (Q13422 whole entry, the tested form may be a part): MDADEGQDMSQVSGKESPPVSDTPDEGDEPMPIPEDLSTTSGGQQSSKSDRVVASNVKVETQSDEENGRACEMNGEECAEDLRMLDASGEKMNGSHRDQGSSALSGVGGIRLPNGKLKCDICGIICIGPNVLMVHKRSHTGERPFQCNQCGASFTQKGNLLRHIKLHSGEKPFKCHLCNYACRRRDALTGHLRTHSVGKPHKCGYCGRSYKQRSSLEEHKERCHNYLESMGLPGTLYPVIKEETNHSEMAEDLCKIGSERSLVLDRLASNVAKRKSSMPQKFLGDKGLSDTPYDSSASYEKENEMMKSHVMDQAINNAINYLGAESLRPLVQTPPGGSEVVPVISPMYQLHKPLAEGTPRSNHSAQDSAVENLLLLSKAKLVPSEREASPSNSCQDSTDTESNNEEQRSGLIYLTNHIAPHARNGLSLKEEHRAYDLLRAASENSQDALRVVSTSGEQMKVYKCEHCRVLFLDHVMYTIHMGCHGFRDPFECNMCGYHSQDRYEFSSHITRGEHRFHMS
IKZF1, sequence (Q96SW2 whole entry, the tested form may be a part): as the sequence (Q96SW2 whole entry) above
IKZF1, sequence (Q16531 whole entry partner, the tested form may be a part): as the sequence (Q16531 whole entry partner) above

Row | DC50 [1] [nM] | inhibition at 10 µM [2, 3] [%] | DC50 [2, 4] [nM] | Structure (SMILES) | inhibition at 10 µM ([2]; 10 μM, 24 h, 293GT cells; read-out: IKZF2 % protein reduction at 10 μM, 24 h) [%]
1 | > 30000 | 75 | 3 | O=C1CCC(N2Cc3cc(C4CCN(Cc5cccc(OC(F)F)c5)CC4)ccc3C2=O)C(=O)N1 (stereo not drawn) [Compound I-79, 3-(5-(1-(3-(difluoromethoxy)benzyl)piperidin-4-yl)-1-oxoisoindolin-2-yl)piperidine-2,6-dione] | 
2 | > 30000 | 60 | 12 | O=C1CCC(N2Cc3cc(C4CCN(Cc5ccccc5OC(F)F)CC4)ccc3C2=O)C(=O)N1 (stereo not drawn) [Compound I-80, 3-(5-(1-(2-(difluoromethoxy)benzyl)piperidin-4-yl)-1-oxoisoindolin-2-yl)piperidine-2,6-dione] | 
3 | > 30000 | 60 | 17 | O=C1CCC(N2Cc3cc(C4CCN(Cc5ccc(F)cc5F)CC4)ccc3C2=O)C(=O)N1 (stereo not drawn) [Compound I-101, 3-(5-(1-(2,4-difluorobenzyl)piperidin-4-yl)-1-oxoisoindolin-2-yl)piperidine-2,6-dione] | 
4 | > 30000 | 60 | 5 | O=C1CCC(N2Cc3cc(C4CCN(Cc5ccccc5C5CC5)CC4)ccc3C2=O)C(=O)N1 (stereo not drawn) [Compound I-104, 3-(5-(1-(2-cyclopropylbenzyl)piperidin-4-yl)-1-oxoisoindolin-2-yl)piperidine-2,6-dione] | 
5 | > 30000 | 50 | 14 | O=C1CCC(N2Cc3cc(C4CCN(Cc5ccccc5C(F)(F)F)CC4)ccc3C2=O)C(=O)N1 (stereo not drawn) [Compound I-106, 3-(1-oxo-5-(1-(2-(trifluoromethyl)benzyl)piperidin-4-yl)isoindolin-2-yl)piperidine-2,6-dione] | 

More lines, now with the values behind:

Row | Structure (SMILES) | DC50 [1] [nM] | inhibition at 10 µM [2, 3] [%] | DC50 [2, 4] [nM] | inhibition at 10 µM ([2]; 10 μM, 24 h, 293GT cells; read-out: IKZF2 % protein reduction at 10 μM, 24 h) [%]
6 | O=C1CCC(N2Cc3cc(C4CCN(Cc5ccc(C(F)(F)F)cn5)CC4)ccc3C2=O)C(=O)N1 (stereo not drawn) [Compound I-78, 3-(1-oxo-5-(1-((5-(trifluoromethyl)pyridin-2-yl)methyl)piperidin-4-yl)isoindolin-2-yl)piperidine-2,6-dione] | > 30000 | 40 | 210 | 
7 | O=C1CCC(N2Cc3cc(C4CCN(Cc5cccc6c5OCCO6)CC4)ccc3C2=O)C(=O)N1 (stereo not drawn) [Compound I-82, 3-(5-(1-((2,3-dihydrobenzo[b][1,4]dioxin-5-yl)methyl)piperidin-4-yl)-1-oxoisoindolin-2-yl)piperidine-2,6-dione] | > 30000 | 60 | 4 | 
8 | O=C1CCC(N2Cc3cc(C4CCN(Cc5ccc6c(c5)OCCO6)CC4)ccc3C2=O)C(=O)N1 (stereo not drawn) [Compound I-83, 3-(5-(1-((2,3-dihydrobenzo[b][1,4]dioxin-6-yl)methyl)piperidin-4-yl)-1-oxoisoindolin-2-yl)piperidine-2,6-dione] | > 30000 | 80 | 52 | 
9 | CC(C)(C)c1ccc(CN2CCC(c3ccc4c(c3)CN(C3CCC(=O)NC3=O)C4=O)CC2)cc1 (stereo not drawn) [Compound I-84, 3-(5-(1-(4-(tert-butyl)benzyl)piperidin-4-yl)-1-oxoisoindolin-2-yl)piperidine-2,6-dione] | > 30000 |  | 15 | 60
10 | O=C1CCC(N2Cc3cc(C4CCN(Cc5ccc6c(c5)OC(F)(F)O6)CC4)ccc3C2=O)C(=O)N1 (stereo not drawn) [Compound I-87, 3-(5-(1-((2,2-difluorobenzo[b][1,3]dioxol-5-yl)methyl)piperidin-4-yl)-1-oxoisoindolin-2-yl)piperidine-2,6-dione] | > 30000 | 80 | 13 | 
11 | O=C1CCC(N2Cc3cc(C4CCN(Cc5ncccn5)CC4)ccc3C2=O)C(=O)N1 (stereo not drawn) [Compound I-95, 3-(1-oxo-5-(1-(pyrimidin-2-ylmethyl)piperidin-4-yl)isoindolin-2-yl)piperidine-2,6-dione] | > 30000 | 20 | 130 | 
12 | O=C1CCC(N2Cc3cc(C4CCN(Cc5cccc6cccnc56)CC4)ccc3C2=O)C(=O)N1 (stereo not drawn) [Compound I-114, 3-(1-oxo-5-(1-(quinolin-8-ylmethyl)piperidin-4-yl)isoindolin-2-yl)piperidine-2,6-dione] | > 50000 | 40 | 29 | 
13 | Cn1cc(CN2CCC(c3ccc4c(c3)CN(C3CCC(=O)NC3=O)C4=O)CC2)cn1 (stereo not drawn) [Compound I-115, 3-(5-(1((1-methyl-1H-pyrazol-4-yl)methyl)piperidin-4-yl)-1-oxoisoindolin-2-yl)piperidine-2,6-dione] | > 30000 | 60 | 72 | 
